Reference: patent US11236089B2, “Substituted pyrrolopyridines as ATR inhibitors” (BlueValley Pharmaceutical LLC, priority 2017, dated 2022)

What was measured:
[1] = system: ATM-Deficient Colorectal Cancer LoVo Cell Lines; experiment: In vitro anti-proliferation assay (ATPlite luminescence); format: cell-based; settings: Homo sapiens; LoVo cells; about 72 hours; 5% FBS
Method: Cell antiproliferation was assayed by PerkinElmer ATPlite™ Luminescence Assay System. Briefly, the various test cancer cell lines were plated at a density of about 1×10^4 cells per well in Costar 96-well plates, and were incubated with different concentrations of compounds for about 72 hours in medium supplemented with 5% FBS. One lyophilized substrate solution vial was then reconstituted by adding 5 mL of substrate buffer solution, and was agitated gently until the solution was homogeneous. About 50 μL of mammalian cell lysis solution was added to 100 μL of cell suspension per well of a microplate, and the plate was shaken for about five minutes in an orbital shaker at ˜700 rpm. This procedure was used to lyse the cells and to stabilize the ATP. Next, 50 μL substrate solution was added to the wells and microplate was shaken for five minutes in an orbital shaker at ˜700 rpm. Finally, the luminescence was measured by a PerkinElmer TopCount® Microplate Scintillation Counter. Such assays, carried out with a range of doses of test compounds, allowed the determination of the cellular anti-antiproliferative IC50 of the compounds of the present invention. The following table lists the IC50 values of several cancer cell lines (5% FBS) for certain compounds of the invention.

Mice PK study = format: in vivo; settings: CD-1 mouse; oral dosing po, 10 mg/kg; plasma
Method: The pharmacokinetics of compounds were evaluated in CD-1 mouse via Intravenous and Oral Administration. The IV dose was administered as a slow bolus in the Jugular vein, and oral doses were administered by gavage. The formulation for IV dosing was 5% DMSO in 20% HPBCD in water, and the PO formulation was 2.5% DMSO, 10% EtOH, 20% Cremphor EL, 67.5% D5W. The PK time point for the IV arm was 5, 15, 30 min, 1, 2, 4, 6, 8, 12, 24 hours post dose, and for PO arm was 15, 30 min, 1, 2, 4, 6, 8, 12, 24 hours post dose. Approximately 0.03 mL blood was collected at each time point. Blood of each sample was transferred into plastic micro centrifuge tubes containing EDTA-K2 and collect plasma within 15 min by centrifugation at 4000 g for 5 minutes in a 4° C. centrifuge. Plasma samples were stored in polypropylene tubes. The samples were stored in a freezer at −75±15° C. prior to analysis. Concentrations of compounds in the plasma samples were analyzed using a LC-MS/MS method. WinNonlin (Phoenix™, version 6.1) or other similar software was used for pharmacokinetic calculations. The following pharmacokinetic parameters were calculated, whenever possible from the plasma concentration versus time data: IV administration: C0, CL, Vd, T1/2, AUCinf, AUClast, MRT, Number of Points for Regression; PO administration: Cmax, Tmax, T1/2, AUCinf, AUClast, F %, Number of Points for Regression. […]

ATR = ATR (Homo sapiens (Human), UniProt Q13535); experiment: Enzyme ATR in vitro enzyme assay (ELISA, phospho-Ser15 p53 substrate); format: biochemical; settings: ATR immunoprecipitated from HeLa nuclear extract; GST-p53N66 substrate; ATP 3 μM; 37° C.
Sequence of ATR (Q13535 whole entry, the tested form may be a part): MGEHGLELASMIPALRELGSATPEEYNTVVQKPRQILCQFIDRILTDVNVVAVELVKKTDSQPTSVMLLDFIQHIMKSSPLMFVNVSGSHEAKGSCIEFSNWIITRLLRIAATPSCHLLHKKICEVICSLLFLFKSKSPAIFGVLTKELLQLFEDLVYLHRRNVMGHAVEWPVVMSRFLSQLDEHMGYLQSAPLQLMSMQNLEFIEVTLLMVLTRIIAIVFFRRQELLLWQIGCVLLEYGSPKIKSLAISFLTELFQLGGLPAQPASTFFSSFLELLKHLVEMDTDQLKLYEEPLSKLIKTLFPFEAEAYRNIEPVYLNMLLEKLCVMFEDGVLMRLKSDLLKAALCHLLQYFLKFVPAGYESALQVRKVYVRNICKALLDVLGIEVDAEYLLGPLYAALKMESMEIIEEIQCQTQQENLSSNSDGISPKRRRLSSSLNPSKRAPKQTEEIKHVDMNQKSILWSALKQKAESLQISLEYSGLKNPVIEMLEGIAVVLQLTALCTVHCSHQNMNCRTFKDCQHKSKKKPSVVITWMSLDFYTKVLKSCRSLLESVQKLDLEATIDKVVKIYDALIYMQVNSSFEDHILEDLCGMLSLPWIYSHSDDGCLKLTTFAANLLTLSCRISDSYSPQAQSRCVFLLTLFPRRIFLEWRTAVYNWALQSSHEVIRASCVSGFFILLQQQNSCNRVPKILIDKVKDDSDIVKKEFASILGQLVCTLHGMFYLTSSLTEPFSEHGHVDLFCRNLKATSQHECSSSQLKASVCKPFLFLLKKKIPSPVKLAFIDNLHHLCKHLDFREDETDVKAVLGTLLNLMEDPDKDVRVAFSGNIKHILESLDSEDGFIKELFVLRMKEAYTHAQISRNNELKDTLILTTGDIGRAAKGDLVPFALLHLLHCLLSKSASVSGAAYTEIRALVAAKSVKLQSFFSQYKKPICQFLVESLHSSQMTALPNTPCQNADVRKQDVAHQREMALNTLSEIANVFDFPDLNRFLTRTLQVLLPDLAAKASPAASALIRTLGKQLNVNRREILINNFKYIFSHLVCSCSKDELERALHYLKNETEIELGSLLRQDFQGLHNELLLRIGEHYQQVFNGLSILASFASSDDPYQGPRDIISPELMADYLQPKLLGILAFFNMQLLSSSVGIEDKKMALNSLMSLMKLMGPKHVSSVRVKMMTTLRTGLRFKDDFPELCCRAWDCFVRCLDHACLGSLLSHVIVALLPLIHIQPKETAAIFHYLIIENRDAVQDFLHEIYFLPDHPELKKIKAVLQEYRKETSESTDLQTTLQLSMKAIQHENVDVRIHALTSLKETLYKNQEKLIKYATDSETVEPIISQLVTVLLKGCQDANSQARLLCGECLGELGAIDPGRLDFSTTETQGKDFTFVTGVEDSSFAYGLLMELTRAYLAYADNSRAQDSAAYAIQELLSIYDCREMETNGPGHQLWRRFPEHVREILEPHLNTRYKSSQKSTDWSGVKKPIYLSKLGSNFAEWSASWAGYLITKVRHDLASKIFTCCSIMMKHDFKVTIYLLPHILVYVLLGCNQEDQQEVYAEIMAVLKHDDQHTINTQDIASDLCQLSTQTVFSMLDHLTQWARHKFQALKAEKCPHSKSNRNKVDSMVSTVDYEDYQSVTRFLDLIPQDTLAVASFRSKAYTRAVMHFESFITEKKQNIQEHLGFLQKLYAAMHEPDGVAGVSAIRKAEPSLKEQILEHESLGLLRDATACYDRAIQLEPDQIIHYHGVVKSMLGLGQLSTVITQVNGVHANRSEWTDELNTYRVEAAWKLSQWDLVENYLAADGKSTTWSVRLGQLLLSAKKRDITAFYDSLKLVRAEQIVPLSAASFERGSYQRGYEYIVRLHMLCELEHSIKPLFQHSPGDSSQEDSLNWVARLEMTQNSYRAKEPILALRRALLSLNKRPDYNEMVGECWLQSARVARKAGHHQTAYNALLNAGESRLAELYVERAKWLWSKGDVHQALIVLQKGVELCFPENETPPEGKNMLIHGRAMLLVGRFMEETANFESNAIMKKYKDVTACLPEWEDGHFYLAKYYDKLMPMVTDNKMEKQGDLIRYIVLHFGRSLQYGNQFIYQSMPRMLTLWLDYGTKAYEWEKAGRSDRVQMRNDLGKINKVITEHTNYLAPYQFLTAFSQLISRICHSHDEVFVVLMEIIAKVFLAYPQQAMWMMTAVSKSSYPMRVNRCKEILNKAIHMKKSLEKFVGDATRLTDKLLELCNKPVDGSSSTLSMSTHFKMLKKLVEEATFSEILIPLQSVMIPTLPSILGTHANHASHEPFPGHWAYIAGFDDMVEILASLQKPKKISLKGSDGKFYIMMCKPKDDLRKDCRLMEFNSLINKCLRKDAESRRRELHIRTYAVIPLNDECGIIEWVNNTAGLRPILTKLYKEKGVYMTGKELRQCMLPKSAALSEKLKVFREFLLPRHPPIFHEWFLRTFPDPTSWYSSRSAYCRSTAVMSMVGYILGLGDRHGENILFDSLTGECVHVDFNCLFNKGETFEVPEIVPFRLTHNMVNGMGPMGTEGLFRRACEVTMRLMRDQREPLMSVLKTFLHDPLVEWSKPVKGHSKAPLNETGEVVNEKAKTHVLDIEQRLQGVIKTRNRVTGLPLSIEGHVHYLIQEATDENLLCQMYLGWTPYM
Sequence of ATR (Q8WXE1 whole entry partner, the tested form may be a part): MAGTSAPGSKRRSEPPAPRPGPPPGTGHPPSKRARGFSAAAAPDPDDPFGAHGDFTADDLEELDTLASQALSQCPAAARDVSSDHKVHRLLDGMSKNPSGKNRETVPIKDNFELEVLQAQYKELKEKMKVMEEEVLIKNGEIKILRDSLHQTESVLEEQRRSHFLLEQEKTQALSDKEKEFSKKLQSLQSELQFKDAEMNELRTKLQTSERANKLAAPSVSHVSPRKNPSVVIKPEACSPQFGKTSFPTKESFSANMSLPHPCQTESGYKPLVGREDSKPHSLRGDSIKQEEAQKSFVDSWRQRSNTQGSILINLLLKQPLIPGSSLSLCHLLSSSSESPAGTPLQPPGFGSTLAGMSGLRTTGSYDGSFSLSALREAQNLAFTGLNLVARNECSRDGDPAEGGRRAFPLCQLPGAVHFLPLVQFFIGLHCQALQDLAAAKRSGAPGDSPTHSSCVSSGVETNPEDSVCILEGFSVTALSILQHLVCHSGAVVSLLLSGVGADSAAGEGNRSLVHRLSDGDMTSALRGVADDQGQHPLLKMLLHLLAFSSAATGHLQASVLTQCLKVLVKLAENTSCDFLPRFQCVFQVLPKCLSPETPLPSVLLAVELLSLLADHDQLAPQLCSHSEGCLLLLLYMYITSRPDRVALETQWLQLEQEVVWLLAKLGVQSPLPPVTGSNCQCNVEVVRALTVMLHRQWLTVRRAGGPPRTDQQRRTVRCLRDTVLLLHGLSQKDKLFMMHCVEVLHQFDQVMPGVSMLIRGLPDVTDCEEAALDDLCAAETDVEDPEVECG
Method: ATR for use in the in vitro enzyme assay was obtained from HeLa nuclear extract (CIL Biotech, Mons, Belgium) by immunoprecipitation with rabbit polyclonal antiserum raised to amino acids 400-480 of ATR (Tibbetts R S et al, 1999, Genes Dev. 13:152-157) contained in the following buffer (25 mM HEPES (pH7.4), 2 mM MgCl2, 250 mM NaCl, 0.5 mM EDTA, 0.1 mM Na3V04, 10% v/v glycerol, and 0.01% v/v Tween 20). ATR-antibody complexes were isolated from nuclear extract by incubating with protein A-Sepharose beads (Sigma, #P3476) for 1 hour and then through centrifugation to recover the beads. In the well of a 96-well plate, […] Sepharose beads were incubated with 1 μg of substrate glutathione S-transferase-p53N66 (NH2-terminal 66 amino acids of p53 fused to glutathione ^-transferase was expressed in E. coli) in ATR assay buffer (50 mM HEPES (pH 7.4), 150 mM NaCl, 6 mM MgCl2, 4 mM MnCl2, 0.1 mM Na3V04, 0.1 mM DTT, and 10% (v/v) glycerol) at 37° C. in the presence or absence of inhibitor. After 10 minutes with gentle shaking, ATP was added to a final concentration of 3 μM and the reaction continued at 37° C. for an additional 1 hour. The reaction was stopped by addition of IOOμí PBS and the reaction was transferred to a white opaque glutathione coated 96-well plate (NUNC #436033) and incubated overnight at 4° C. This plate was then washed with PBS/0.05%>(v/v) Tween 20, blotted dry, and analyzed by a standard ELISA (Enzyme-Linked Immunosorbent Assay) technique with a phospho-serine 15 p53 (16G78) antibody (Cell Signaling Technology, #9286). The detection of phosphorylated glutathione S-transferase-pSSNee substrate was performed in combination with a goat anti-mouse horseradish peroxidase-conjugated secondary antibody (Pierce, #31430). Enhanced chemiluminescence solution (NEN, Boston, Mass.) was used to produce a signal and chemiluminescent detection was carried out via a TopCount (Packard, Meriden, Conn.) plate reader.

SMILES	IC50 [1] [nM]	AUC(0-t) (Mice PK study) [ng·h/mL]	IC50 (ATR) [nM]
CN=S(C)(=O)C1(c2cc(N3CCOC[C@H]3C)nc(-c3ccnc4[nH]ccc34)n2)CC1 (stereo partly drawn) [CY-200-1, Methyl[methyl(1-[6-[(3R)-3-methylmorpholin-4-yl]-2-[1H-pyrrolo[2,3-b]pyridin-4-yl]pyrimidin-4-yl]cyclopropyl)oxo-lambda-sulfanylidene]amine]	–	–	< 3
C[C@@H]1COCCN1c1cc(C(C)(C)O)nc(-c2ccnc3[nH]ccc23)n1 [CY-212, 2-[6-[(3R)-3-methylmorpholin-4-yl]-2-[1H-pyrrolo[2,3-b]pyridin-4-yl]pyrimidin-4-yl]propan-2-ol]	–	–	< 3
C[C@@H]1COCCN1c1cc(C(C)(C)C#N)nc(-c2ccnc3[nH]ccc23)n1 [CY-237, 2-methyl-2-[6-[(3R)-3-methylmorpholin-4-yl]-2-[1H-pyrrolo[2,3-b]pyridin-4-yl]pyrimidin-4-yl]propanenitrile]	480	4390	< 3
C[C@@H]1COCCN1c1cc(C(C)(O)C(F)(F)F)nc(-c2ccnc3[nH]ccc23)n1 (stereo partly drawn) [CY-257, 1,1,1-trifluoro-2-[6-[(3R)-3-methylmorpholin-4-yl]-2-[1H-pyrrolo[2,3-b]pyridin-4-yl]pyrimidin-4-yl]propan-2-ol]	830	–	< 3

More lines, now with the values ahead:

IC50 [1] [nM]	AUC(0-t) (Mice PK study) [ng·h/mL]	IC50 (ATR) [nM]	SMILES
800	3100	–	C[C@@H]1COCCN1c1cc(C2([S@](C)(=N)=O)CC2)nc(-c2cc[nH]c3nccc2-3)n1 [AZD-6738, reference compound]
–	–	< 3	[2H]C([2H])([2H])N=S(C)(=O)C1(c2cc(N3CCOC[C@H]3C)nc(-c3ccnc4[nH]ccc34)n2)CC1 (stereo partly drawn) [CY-209, (2H3)methyl[methyl(1-[6-[(3R)-3-methylmorpholin-4-yl]-2-[1H-pyrrolo[2,3-b]pyridin-4-yl]pyrimidin-4-yl]cyclopropyl)oxo-lambda6-sulfanylidene]amine]
510	–	< 3	C[C@@H]1COCCN1c1cc(NCC2CC(F)(F)C2)nc(-c2ccnc3[nH]ccc23)n1 [CY-249, N-[(3,3-difluorocyclobutyl)methyl]-6-[(3R)-3-methylmorpholin-4-yl]-2-[1H-pyrrolo[2,3-b]pyridin-4-yl]pyrimidin-4-amine]
